Results as given in patent publication EP0958822A1, “THE OCULAR HYPOTENSIVE ACTIVE COMPOSITIONS” (Lin, Tongho, priority 1996, dated 1998).

Tested on: New Zealand albino rabbits
Test: IOP recovery after hypertonic saline infusion (ocular hypertensive rabbit model)
Type: in vivo
Settings: 50 µl instilled in eye
Method: 1981, vol 13 pp72-79. New Zealand albino rabbits of either sex were used in the study. A 20 % hypertonic saline solution was infused at the speed of 1 ml […] for 10 minutes through the marginal ear vein with an infusion pump. […] Then the IOP of both eyes were measured with a Tono-Pen XL Tonometer (Mentor, Norwell , MA) at 30 minute and 10 minute intervals before the experiment. At the time of commencement, as well as at 10, 20, 40, 60, and 80 min intervals measurements were taken. Then measurements were repeated at every 30 minute intervals. […] The IOP recovery curve acquired had shifted to the right and below the curve of the controlled group.

CCN1CCCC1CNC(=O)c1cc(S(N)(=O)=O)ccc1OC (centres unmarked) [Sulpiride]
IOP recovery time (0.5% drop solution, 20 % hypertonic saline infusion): didn't show a significant ability in decreasing IOP
decreasing IOP (20% drop solution): it did so when the concentration was raised to 20%
